{"source": "patent US20080076824A1", "about": "“Compounds That Inhibit Replication Of Human Immunodeficiency Virus” (priority 2004, published 2008)", "key": {"[1]": {"assay": "Cytotoxicity (CC50) in MT-4 cells", "assay_type": "cell-based", "details": "human, MT-4 cells"}, "human PBMC": {"tested_on": "human PBMC", "assay": "Mitogenic activity assay, [3H]dThd incorporation in human PBMC with or without PHA", "assay_type": "cell-based", "details": "concentrations up to 200 μg/ml, absence of PHA", "experimental": "The mitogenic activity assay was conducted as follows. Human PBMC were isolated from buffy coats and brought in RPMI-1640 cell culture medium supplemented with 10% FCS and 2 mM L-glutamine. The cell cultures were exposed to several concentrations of the test compounds for 3 days in the absence or presence of PHA (phytohemagglutinin) (Murex Biotech Ltd., Dartford, UK) at 2 μg/ml. Subsequently, 0.25 μCi [CH3^−3H]dThd was added and, after 20 hr incubation at 37° C., the cells were precipitated in the presence of 10% TCA and the precipitate was washed twice with 10% TCA, twice with 5% TCA and once with 70% ethanol. The precipitate, containing [^3H]DNA, was then examined for radioactivity in a liquid scintillation counter."}, "in vitro": {"assay": "in vitro", "details": "human"}, "HIV-1 (IIIB)": {"tested_on": "HIV-1 (IIIB)", "assay": "microbe, parasite or virus in culture", "details": "Human immunodeficiency virus 1, IIIB, CCRF-CEM"}, "MT-4 cells": {"tested_on": "MT-4 cells", "assay": "Cytotoxicity (CC50) in MT-4 cells", "assay_type": "cell-based"}, "[2]": {"assay": "Conversion of G-NH2 to modified G-NH2 by pig plasma (cation exchange HPLC)", "assay_type": "in vitro ADME", "details": "37° C.", "experimental": "(§1) Various concentrations of G-NH2 were mixed with either 90% pig plasma or 90% dialyzed pig plasma in PBS and the reactions were conducted at 37° C. for 24 hours. Subsequently, aliquots of the mixtures were separated by cation exchange HPLC, as described previously, and the conversion of G-NH2 to modified G-NH2 was evaluated. […] Saturation of the enzyme activity of cofactor(s) in pig plasma (90% in PBS) occurred between 1,000 μM and 10,000 μM G-NH2."}, "[3]": {"assay": "Conversion of G-NH2 to modified G-NH2 by dialyzed pig plasma (cation exchange HPLC)", "assay_type": "in vitro ADME", "details": "for conversion to modified G-NH2 (24 hr) (percent conversion) Dialysed Pig plasma: 37° C.; for Percent conversion / μM formation: 6 hr", "experimental": "In still another set of experiments, a first step isolation of the cofactor present in pig plasma was performed and the enzymatic activity of the isolated product was compared to the enzymatic activity of the crude product. An aliquot of pig plasma was placed in dialysis tubing (MW cut off 10,000) and the serum was subjected to dialysis. Subsequently, the pig plasma dialysate was evaluated for the ability to convert G-NH2 to modified G-NH2.\nas §1\nIn still another set of experiments, the saturation point of the isolated cofactor found in pig plasma was more closely scrutinized. Dialyzed pig plasma (90% in PBS) was mixed with concentrations of G-NH2 between […] and 10,000 μM. Subsequently, the mixtures were incubated at 37° C. for 6 hours and aliquots were separated by cation exchange HPLC, as before. The results shown in TABLE 8 confirmed that the saturation point of the cofactor(s) in pig plasma was near 2,000 μM G-NH2."}, "[4]": {"assay": "Conversion of radiolabeled G-NH2 to modified G-NH2 by human sera", "assay_type": "in vitro ADME", "details": "10% human serum in PBS, 37° C., 24 hours, each of 10 samples", "experimental": "Several lots of human sera and fetal bovine sera were analyzed for their ability to convert G-NH2 to modified G-NH2. Radiolabeled cation exchange HPLC purified G-NH2 (see EXAMPLE 3) was incubated with the various sera at a 10% final concentration in PBS at 37° C. for 15 minutes and 1, 6, 24, or 72 hours. Subsequently, the amount of radiolabeled modified G-NH2 was evaluated using the cation exchange HPLC approach described above."}, "[5]": {"assay": "Conversion of G-NH2 to Metabolite X in 10% pig serum with and without reducing agents", "assay_type": "in vitro ADME", "details": "absence of GTT, NAC and DTT", "experimental": "In another set of experiments, the conversion of GNH2 to modified glycinamide (Metabolite X) in pig serum (10%) was monitored over time in the presence and absence of differing concentrations (e.g., 40 mM, 10 mM, 4 mM) of reducing agents (glutathione (GTT), N-acetyl cysteine (NAC), and dithiothreitol (DTT)). […] See Han et al., Bull. Korean. Chem. Soc., 17, 659-661 (1996). In the absence of GTT, NAC and DTT, almost 100% coversion to Metabolite X was seen."}, "[6]": {"assay": "Conversion of [14C]G-NH2 by Phaseolus vulgaris root nodule extract", "assay_type": "biochemical", "details": "overnight, 37° C.", "experimental": "An extract from Phaseolus vulgaris root nodule was prepared as follows: approximately 20 g of root nodules of 3-4 week old kidney beans (Phaseolus vulgaris) were removed, washed with potassium phosphate buffer 50 mM pH 8.0 and homogenized with 30 ml buffer. Then, the homogenate was sonicated (3×20 sec) on ice, and centrifuged for 15 min, 4° C. at 3,000 rpm. The supernatant was then centrifuged at 15,000 rpm during 20 min at 4° C., aliquoted and stored at −80° C. before use. To the reaction mixture (50 mM potassium phosphate buffer pH 8.0) was added: 0.1 μCi [^14C]G-NH2 and 50 μl extract supernatant (100%, 50% and 20%) and 50 μl buffer. The reaction proceeded overnight (˜18 hrs) at 37° C. Then, methanol was added (200 μl) to stop the reaction and the reaction mixture was subjected to cation exchange column chromatography, as described above. A reaction mixture containing bovine serum was also evaluated as a control."}, "CEM cells [7]": {"tested_on": "CEM cells"}, "[8]": {"target": "glycine oxidase from Bacillus subtilis (Bacillus subtilis, UniProt O31616)", "sequence (O31616 whole entry)": "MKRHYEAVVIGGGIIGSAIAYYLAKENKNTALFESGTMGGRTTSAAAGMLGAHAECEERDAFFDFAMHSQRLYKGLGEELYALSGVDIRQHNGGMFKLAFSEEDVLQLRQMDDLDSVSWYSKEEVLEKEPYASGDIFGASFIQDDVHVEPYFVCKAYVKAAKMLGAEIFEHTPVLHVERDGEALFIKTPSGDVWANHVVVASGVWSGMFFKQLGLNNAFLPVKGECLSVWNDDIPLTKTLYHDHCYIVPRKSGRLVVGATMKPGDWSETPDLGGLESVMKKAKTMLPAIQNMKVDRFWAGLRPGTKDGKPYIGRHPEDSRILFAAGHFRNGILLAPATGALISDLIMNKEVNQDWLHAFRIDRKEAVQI"}, "[9]": {"assay": "Cytotoxicity / cell proliferation in CEM cells", "details": "human"}, "CEM cells [10]": {"tested_on": "CEM cells", "assay": "Cytotoxicity / cell proliferation in CEM cells"}, "[11]": {"details": "2,000 μM G-NH2, dialyzed pig plasma 90% in PBS"}, "[12]": {"details": "4,000 μM G-NH2, dialyzed pig plasma 90% in PBS"}, "[13]": {"details": "6,000 μM G-NH2, dialyzed pig plasma 90% in PBS"}, "[14]": {"details": "8,000 μM G-NH2, dialyzed pig plasma 90% in PBS"}, "[15]": {"details": "10,000 μM G-NH2, dialyzed pig plasma 90% in PBS"}}, "note": "Where a name gives a salt, the structure may show the parent alone. Read-outs that look alike come from different tables or passages of the source. Residues, ends and D or L forms follow the SMILES beside them.", "data": [{"compound": "NC(=O)C(N)O", "note": "(stereo not drawn) [AlphaHGA, α-Hydroxy-glycinamide hydrochloride]", "values": [{"measurement": "CC50", "setting": "[1]", "result": "372 ± 107", "unit": "µM"}, {"measurement": "mitogenic activity against human PBMCs", "setting": "human PBMC", "result": "non-mitogenic"}, {"measurement": "CC50 at 96 hr", "setting": "in vitro", "result": "606 ± 23", "unit": "µM"}, {"measurement": "EC50", "setting": "HIV-1 (IIIB); read-out: EC50 (CEM) HIV-1 (IIIB)", "result": "40 ± 8.2", "unit": "µM"}, {"measurement": "EC50", "setting": "HIV-1 (IIIB); read-out: EC50 (CEM) HIV-1(IIIB)", "result": "43 ± 5.8", "unit": "µM"}]}, {"compound": "NCC(N)=O", "note": "[G-NH2, glycinamide]", "values": [{"measurement": "CC50", "setting": "MT-4 cells", "result": "> 2", "unit": "mM"}, {"measurement": "conversion to modified G-NH2 (24 hr) (percent conversion) Pig plasma", "setting": "[2]; 18 μM G-NH2, plasma 90% in PBS", "result": 99.7, "unit": "%"}, {"measurement": "conversion to modified G-NH2 (24 hr) (percent conversion) Pig plasma", "setting": "[2]; 100 μM G-NH2, plasma 90% in PBS", "result": 99.7, "unit": "%"}, {"measurement": "conversion to modified G-NH2 (24 hr) (percent conversion) Pig plasma", "setting": "[2]; 1,000 μM G-NH2, plasma 90% in PBS", "result": 98.7, "unit": "%"}, {"measurement": "conversion to modified G-NH2 (24 hr) (percent conversion) Pig plasma", "setting": "[2]; 10,000 μM G-NH2, plasma 90% in PBS", "result": "˜24.5%"}, {"measurement": "conversion to modified G-NH2 (24 hr) (percent conversion) Dialysed Pig plasma", "setting": "[3]; 18 μM G-NH2, 90% in PBS", "result": 99.8, "unit": "%"}, {"measurement": "conversion to modified G-NH2 (24 hr) (percent conversion) Dialysed Pig plasma", "setting": "[3]; 100 μM G-NH2, 90% in PBS", "result": 99.8, "unit": "%"}, {"measurement": "conversion to modified G-NH2 (24 hr) (percent conversion) Dialysed Pig plasma", "setting": "[3]; 1,000 μM G-NH2, 90% in PBS", "result": 99.8, "unit": "%"}, {"measurement": "Percent conversion", "setting": "[3]; [11]", "result": 82.6, "unit": "%"}, {"measurement": "μM formation", "setting": "[3]; [11]", "result": "1,652 μM"}, {"measurement": "Percent conversion", "setting": "[3]; [12]", "result": 42.1, "unit": "%"}, {"measurement": "μM formation", "setting": "[3]; [12]", "result": "1,684 μM"}, {"measurement": "Percent conversion", "setting": "[3]; [13]", "result": 24.9, "unit": "%"}, {"measurement": "μM formation", "setting": "[3]; [13]", "result": "1,494 μM"}, {"measurement": "Percent conversion", "setting": "[3]; [14]", "result": 21.0, "unit": "%"}, {"measurement": "μM formation", "setting": "[3]; [14]", "result": "1,680 μM"}, {"measurement": "conversion to modified G-NH2 (24 hr) (percent conversion) Dialysed Pig plasma", "setting": "[3]; 10,000 μM G-NH2, 90% in PBS", "result": 24.7, "unit": "%"}, {"measurement": "Percent conversion", "setting": "[3]; [15]", "result": 17.0, "unit": "%"}, {"measurement": "μM formation", "setting": "[3]; [15]", "result": "1,700 μM"}, {"measurement": "conversion of G-NH2 to modified G-NH2", "setting": "[4]", "result": "less than 10%"}, {"measurement": "conversion to Metabolite X", "setting": "[5]", "result": "~100", "unit": "%"}, {"measurement": "conversion of glycinamide to modified glycinamide", "setting": "[6]", "result": "efficiently converts glycinamide to modified glycinamide"}, {"measurement": "CC50", "setting": "CEM cells [7]", "result": "> 2", "unit": "mM"}, {"measurement": "EC50", "setting": "CEM cells [7]", "result": "> 2", "unit": "mM"}, {"measurement": "no cytotoxicity at concentrations as high as", "setting": "CEM cells [7]", "result": "1500 to 2000", "unit": "µM"}, {"measurement": "conversion of G-NH2 to Metabolite X", "setting": "[8]", "result": "unable to convert"}]}, {"compound": "NCC(=O)N1CCC[C@H]1C(=O)NCC(N)=O", "note": "[GPG-NH2, glycylprolylglycinamide] (H-Gly-Pro-Gly-NH2)", "values": [{"measurement": "EC50", "setting": "[9]", "result": "> 2", "unit": "mM"}, {"measurement": "no cytotoxicity at concentrations as high as", "setting": "CEM cells [10]", "result": "1500 to 2000", "unit": "µM"}]}]}
